Tests used:
[1] = Stabilization effect on perfume under daylight exposure (Test Examples 92 to 181); assay type: physicochemical; design: key: ◯: no change; Δ: almost no change; x: change; conditions: daylight exposure (80 MJ)
Procedure: Each test sample was prepared for observation of the change of the odor of the test sample (determined by perfume coordinator) before and after daylight exposure (80 MJ).

[2] = Drug stabilization effect under daylight exposure (Test Examples 182 to 211); assay type: physicochemical; design: key to Appearance (visual determination): ◯: no change; Δ: almost no change; x: change; conditions: drug salicylic acid 0.1 wt %, photostabilizer 0.05 wt %, daylight exposure (80 MJ)
Procedure: For observation of the change of the appearance of each test sample (determination based on visual observation) and the measurement of the remaining ratio by liquid chromatography before and after daylight exposure (80 MJ), the test sample was prepared.

skin [3] = assay: Test of skin irritation: continuous application test (Test Example 3 i); assay type: in vivo, human; conditions: 10 wt % ultraviolet absorbent, twice daily for 4 weeks
Procedure: (§1) The same samples as in the Test Example 2 were used (at a 10 wt % amount of an ultraviolet absorbent).
Continuous application test was carried out for 20 healthy subjects per one group. An appropriate amount of each of the samples was coated twice daily for 4 weeks. The effects were assessed according to the following assessment standards.
Mean score was calculated for the determination of the effect on the basis of the following standards.
(§2) ◯: mean score of more than 0 to less than 1.
(§3) Δ: mean score of 1 or more to less than 2.
(§4) x: mean score of 2 or more.

sunburn = assay: Ultraviolet preventive effect, application test on beach in summer (Test Example 2); assay type: in vivo, human
Procedure: An application test was carried out on beach in summer. Equal volumes of samples were individually coated on back halves of subjects. After exposure to direct daylight, the degree of sunburn was assessed according to the following assessment standards. Each group consists of 10 subjects.
Prominently effective: none or almost no sunburn symptom was observed.
Effective: light sunburn symptom was observed.
Ineffective: strong sunburn symptom was observed.
⊚: prominently effective or effective for 80% or more of the subjects.
◯: prominently effective or effective for 50% or more to less than 80% of the subjects.
Δ: prominently effective or effective for 30% or more to less than 50% of the subjects.
x: prominently effective or effective for less than 30% of the subjects.
The aqueous phase and the alcohol phase were separately prepared and then mixed together.
Propylene glycol was added to and dissolved in ion exchange water. The resulting solution was retained at 70° C. under heating (aqueous phase). Other ingredients were mixed […]. The resulting mixture was melted under heating and retained at 70° C. (oil phase). The oil phase was added to the aqueous phase, for preliminary emulsification with a homomixer to homogeneity. Under thorough mixing, subsequently, the mixture was cooled to 30° C.

[4] = Dye stabilization effect under daylight exposure (Test Examples 6-91); assay type: physicochemical; design: key to Δ E: color difference ΔE in Lab vs. color before daylight exposure; key to Appearance (visual determination): ◯: no change; Δ: almost no change; x: change; conditions: photostabilizer 0.05 wt %, daylight exposure (80 MJ)
Outline: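 Test samples exposed to daylight to 80 MJ; appearance judged visually. Colour measured by spectrophotometer in Lab coordinates, with ΔE calculated relative to pre-exposure values (L1, a1, b1).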

[5] = Stability test in combination with inorganic powder-based ultraviolet shielding agent, sunscreen cream (Test Example 5); assay type: physicochemical; conditions: sunscreen cream with inorganic powders; ultraviolet absorbent 10.0 wt %; 50° C. for 2 months; visual observation
Procedure: A sunscreen cream of the following formulation was prepared and stored at 50° C. for 2 months. Under visual observation of the color change, the stability of the inventive pyridazine derivative in combination with inorganic powder-based ultraviolet screening agents commonly in blend as external preparations for skin for the purpose of ultraviolet prevention was examined.
After the ingredient 2 was added to the ingredient 1 to swell the ingredient 2, the ingredients 3 to 11 were mixed with the resulting mixture under heating, for sufficient dispersion and dissolution. While keeping the dispersion at 70° C., a solution of the mixture of the ingredients 12 to 15 was gradually added to the dispersion under thorough emulsification with a homomixer. The resulting mixture was cooled to 30° C. under sufficient stirring to prepare sunscreen creams.

[6] = Photostability test of aqueous solutions under daylight (Test Example 4); assay type: physicochemical; conditions: aqueous solution, daylight for 2 weeks (80 MJ)
Procedure: Aqueous solutions of the pyridazine derivative of the invention were exposed to daylight for 2 weeks (at a daylight exposure of 80 MJ). Subsequently, the remaining ratio and the change of the appearance were examined to measure the ultraviolet spectra with a spectrophotometer (solvent: water; concentration of 10 ppm and optical path length of 1 cm). The area under ultraviolet spectra curve from 290 nm to 400 nm were determined by integration to compare the area with the area before daylight exposure.
The remaining ratio and the change of the area under the ultraviolet spectrum were determined on the basis of the following standards.
⊚: 95% or more of those before daylight exposure.
◯: 90% or more to less than 95% of those before daylight exposure.
Δ: 70% or more to less than 90% of those before daylight exposure.
x: less than 70% of those before daylight exposure.

skin [7] = assay: Test of skin irritation: 24-hour occlusion patch test (Test Example 3 ii); assay type: in vivo, human; conditions: 10 wt % ultraviolet absorbent
Procedure: as §1
20 Healthy male and female volunteers per one group were carried out in a 24-hour occlusion patch test, using a fin chamber on forearm curves. Assessment was done on the basis of the following assessment standards.
Mean score was determined for the assessment on the basis of the following standards.
as §2, §3, §4

[8] = dye Blue 1 (Brilliant Blue FCF) 0.0001 wt %
[9] = dye Green 3 (Fast Green FCF) 0.001 wt %
[10] = dye Red 227 (Acid Fuchsine D) 0.0001 wt %
[11] = dye Yellow 5 (Sunset Yellow FCF) 0.001 wt %
[12] = dyes Red 227 (Acid Fuchsine D) 0.0001 + Yellow 5 (Sunset Yellow FCF) 0.0001 wt %

Which results are given for `Oc1nnccc1N1CCCCC1` [3-Hydroxy-4-piperidinopyridazine, 3-hydroxy-4-piperidinopyridazine]?
odor determination ([1]; base perfume Rose, photostabilizer 0.05 wt %): ◯; odor determination ([1]; base perfume Woody, photostabilizer 0.1 wt %): ◯; odor determination ([1]; natural perfume Rose oil, photostabilizer 0.05 wt %): ◯; Appearance (visual determination) [2]: ◯; Remaining ratio (%) ([2]; liquid chromatography): 98.4%; Determination (skin reaction, continuous application test) (skin [3]; cream): ⊚ (mean score of 0); Determination (skin reaction, continuous application test) (skin [3]; lotion): ⊚ (mean score of 0); Ultraviolet prevention effect (sunburn; cream, blend amount 0.0005 wt %): Δ (prominently effective or effective for 30% or more to less than 50% of the subjects); Ultraviolet prevention effect (sunburn; cream, blend amount 0.001 wt %): ◯ (prominently effective or effective for 50% or more to less than 80% of the subjects); Ultraviolet prevention effect (sunburn; cream, blend amount 0.01 wt %): ⊚ (prominently effective or effective for 80% or more of the subjects); Ultraviolet prevention effect (sunburn; cream, blend amount 1 wt %): ⊚ (prominently effective or effective for 80% or more of the subjects); Ultraviolet prevention effect (sunburn; cream, blend amount 5 wt %): ⊚ (prominently effective or effective for 80% or more of the subjects); Ultraviolet prevention effect (sunburn; cream, blend amount 10 wt %): ⊚ (prominently effective or effective for 80% or more of the subjects); Ultraviolet prevention effect (sunburn; cream, blend amount 20 wt %): ⊚ (prominently effective or effective for 80% or more of the subjects); Ultraviolet prevention effect (sunburn; lotion, blend amount 0.0005 wt %): Δ (prominently effective or effective for 30% or more to less than 50% of the subjects); Ultraviolet prevention effect (sunburn; lotion, blend amount 0.001 wt %): ◯ (prominently effective or effective for 50% or more to less than 80% of the subjects); Ultraviolet prevention effect (sunburn; lotion, blend amount 0.01 wt %): ⊚ (prominently effective or effective for 80% or more of the subjects); Ultraviolet prevention effect (sunburn; lotion, blend amount 1 wt %): ⊚ (prominently effective or effective for 80% or more of the subjects); Ultraviolet prevention effect (sunburn; lotion, blend amount 5 wt %): ⊚ (prominently effective or effective for 80% or more of the subjects); Ultraviolet prevention effect (sunburn; lotion, blend amount 10 wt %): ⊚ (prominently effective or effective for 80% or more of the subjects); Ultraviolet prevention effect (sunburn; lotion, blend amount 20 wt %): ⊚ (prominently effective or effective for 80% or more of the subjects); Appearance (visual determination) [4, 8]: ◯; Δ E [4, 8]: 1.24; Appearance (visual determination) [4, 9]: ◯; Δ E [4, 9]: 0.46; Appearance (visual determination) [4, 10]: ◯; Δ E [4, 10]: 0.54; Appearance (visual determination) [4, 11]: ◯; Δ E [4, 11]: 0.58; Appearance (visual determination) [4, 12]: ◯; Δ E [4, 12]: 0.65; Color change [5]: no; Remaining ratio [6]: ⊚ (95% or more of those before daylight exposure); Change of area under ultraviolet spectrum ([6]; 290 nm to 400 nm): ⊚ (95% or more of those before daylight exposure); Determination (skin reaction, patch test) (skin [7]; cream): ⊚ (mean score of 0); Determination (skin reaction, patch test) (skin [7]; lotion): ⊚ (mean score of 0)
